Laboratory results reported in ChEMBL document CHEMBL6087420, “Synthesis and pharmacodynamic evaluation of 2-aminoindole derivatives against influenza A virus in vitro/vivo” (Eur J Med Chem, 2025).
Active and inactive are the calls of the source. The calls are words filed in the database; no cut-off is given here.

Tests used:
Influenza A virus [1] = experiment: Inhibition of influenza A virus infection induced apoptosis in MDCK cells infected with influenza virus assessed as late apoptotic cells at 50 uM incubated for 36 hrs by AnnexinV-FITC/PI staining based flow cytometry (reference value: 13.2%); format: functional; parameters: scale not given: the % may be the effect or the level left
Influenza A virus [2] = experiment: In vivo antiviral activity against influenza A virus infected in BALB/c mouse assessed as decrease in symptoms at 25 to 100 mg/kg; format: functional, organism-based; conditions: dose 25-100 mg/kg
Influenza A virus [3] = experiment: In vivo antiviral activity against influenza A virus infected in BALB/c mouse assessed as reduction in IAV-NP mRNA level in lung at 25 to 100 mg/kg measured after 6 dpi; format: functional, organism-based; conditions: dose 25-100 mg/kg
Influenza A virus [4] = experiment: Antiviral activity against influenza A virus infected in A549 cells assessed as decrease in IAV-M2 mRNA level measured after 1 to 3 days of viral infection; format: functional, organism-based; conditions: time 1-3 day
Influenza A virus [5] = experiment: Inhibition of influenza A virus infection induced apoptosis in MDCK cells infected with influenza virus assessed as necrotic cells at 100 uM incubated for 36 hrs by AnnexinV-FITC/PI staining based flow cytometry (reference value: 1.79%); format: functional; parameters: scale not given: the % may be the effect or the level left
MDCK = experiment: Inhibition of influenza virus infection induced mitochondrial membrane potential loss in MDCK cells infected with influenza virus assessed as decrease in green fluorescence at 25 to 100 uM by JC-1 probe based confocal microscopy; format: functional, cell-based; conditions: Influenza A virus, dose 25-100 µM
Influenza A virus [6] = experiment: In vivo antiviral activity against influenza A virus infected in BALB/c mouse assessed as reduction in IL-6 mRNA level in lung at 25 to 100 mg/kg measured after 6 dpi; format: functional, organism-based; conditions: dose 25-100 mg/kg
Influenza A virus [7] = experiment: Inhibition of influenza A virus infection induced apoptosis in MDCK cells infected with influenza virus assessed as early apoptotic cells at 100 uM incubated for 36 hrs by AnnexinV-FITC/PI staining based flow cytometry (reference value: 18.2%); format: functional; parameters: scale not given: the % may be the effect or the level left
Influenza A virus [8] = experiment: Antiviral activity against influenza A virus infected in A549 cells assessed as decrease in IAV-NP expression pretreated for 48 hrs followed by infected with virus by Western blotting analysis; format: functional, organism-based; conditions: dose 25-100 µM
Influenza A virus [9] = experiment: In vivo antiviral activity against influenza A virus infected in BALB/c mouse assessed as reduction in OAS1 mRNA level in lung at 25 to 100 mg/kg measured after 6 dpi; format: functional, organism-based; conditions: dose 25-100 mg/kg
[10] = Toxicity in healthy BALB/c mouse assessed as pathological change in liver at 25 to 100 mg/kg administered through gavage for 6 days; format: organism-based; conditions: in vivo, po, 144 h, dose 25-100 mg/kg, time 6 day
Influenza A virus [11] = experiment: Inhibition of influenza A virus infection induced apoptosis in MDCK cells assessed as early apoptotic cells at 100 uM incubated for 36 hrs by AnnexinV-FITC/PI staining based flow cytometry (reference value: 0.96%); format: functional; parameters: scale not given: the % may be the effect or the level left
Influenza A virus [12] = experiment: In vivo antiviral activity against influenza A virus infected in BALB/c mouse assessed as reduction in IRF3 mRNA level in lung at 25 to 100 mg/kg measured after 6 dpi; format: functional, organism-based; conditions: dose 25-100 mg/kg
Influenza A virus [13] = experiment: Inhibition of influenza A virus infection induced apoptosis in MDCK cells infected with influenza virus assessed as decrease in Bax incubated for 36 hrs by Western blot analysis; format: functional, organism-based
[14] = Toxicity in healthy BALB/c mouse assessed as pathological change in colon at 25 to 100 mg/kg administered through gavage for 6 days; format: organism-based; conditions: in vivo, po, 144 h, dose 25-100 mg/kg, time 6 day
Influenza A virus [15] = experiment: In vivo antiviral activity against influenza A virus infected in BALB/c mouse assessed as reduction in TNF-alpha mRNA level in lung at 25 to 100 mg/kg measured after 6 dpi; format: functional, organism-based; conditions: dose 25-100 mg/kg
[16] = Toxicity in healthy BALB/c mouse assessed as pathological change in lungs at 25 to 100 mg/kg administered through gavage for 6 days; format: organism-based; conditions: in vivo, po, 144 h, dose 25-100 mg/kg, time 6 day
[17] = Toxicity in healthy BALB/c mouse assessed as pathological change in kidney at 25 to 100 mg/kg administered through gavage for 6 days; format: organism-based; conditions: in vivo, po, 144 h, dose 25-100 mg/kg, time 6 day
[18] = Cytotoxicity against human A549 cells assessed as toxicity after 72 hrs of incubation by MTT assay; format: cell-based
Influenza A virus [19] = experiment: Antiviral activity against influenza A virus H1NI (A/Weiss/43) infected in human A549 cells assessed as reduction in IAV-NP mRNA by qRT-PCR assay; format: functional, organism-based
Influenza A virus [20] = experiment: Antiviral activity against influenza A virus infected in human A549 cells assessed as inhibition of NF-kappaB protein expression at 25 to 100 uM by Western blot analysis; format: functional, organism-based; conditions: dose 25-100 µM
Influenza A virus [21] = experiment: Inhibition of influenza A virus infection induced apoptosis in MDCK cells assessed as necrotic cells at 100 uM incubated for 36 hrs by AnnexinV-FITC/PI staining based flow cytometry (reference value: 0.74%); format: functional; parameters: scale not given: the % may be the effect or the level left
Influenza A virus [22] = experiment: In vivo antiviral activity against influenza A virus infected in BALB/c mouse assessed as reduction in weight loss at 25 to 100 mg/kg; format: functional, organism-based; conditions: dose 25-100 mg/kg
[23] = Cytotoxicity against dog MDCK cells after 72 hrs incubation by MTT assay; format: toxicity, cell-based, Canis lupus familiaris
[24] = Toxicity in healthy BALB/c mouse assessed as pathological change in spleen at 25 to 100 mg/kg administered through gavage for 6 days; format: organism-based; conditions: in vivo, po, 144 h, dose 25-100 mg/kg, time 6 day
Influenza A virus [25] = experiment: Antiviral activity against influenza A virus infected in A549 cells assessed as decrease in IAV-M2 expression pretreated for 48 hrs followed by infected with virus by Western blotting analysis; format: functional, organism-based; conditions: dose 25-100 µM
Influenza A virus [26] = experiment: Antiviral activity against influenza A virus infected in human A549 cells assessed as inhibition of IFN-gamma expression by qRT-PCR analysis; format: functional, organism-based
Influenza A virus [27] = experiment: Inhibition of influenza A virus infection induced apoptosis in MDCK cells assessed as viable cells at 100 uM incubated for 36 hrs by AnnexinV-FITC/PI staining based flow cytometry (reference value: 97.6%); format: functional
Influenza A virus [28] = experiment: Antiviral activity against influenza virus infected in A549 cells assessed as inhibition in inflammatory cell invasion; format: functional, organism-based
Influenza A virus [29] = experiment: Antiviral activity against influenza A virus infected in human A549 cells assessed as inhibition of TNFalpha expression by qRT-PCR analysis; format: functional, organism-based
Influenza A virus [30] = experiment: Inhibition of Hemagglutinin in Influenza A virus
Influenza A virus [31] = experiment: Inhibition of influenza A virus infection induced apoptosis in MDCK cells infected with influenza virus assessed as early apoptotic cells at 25 uM incubated for 36 hrs by AnnexinV-FITC/PI staining based flow cytometry (reference value: 18.2%); format: functional; parameters: scale not given: the % may be the effect or the level left
Influenza A virus [32] = experiment: Antiviral activity against influenza A virus infected in human A549 cells assessed as inhibition of TLR3 expression by qRT-PCR analysis; format: functional, organism-based
Influenza A virus [33] = experiment: Inhibition of influenza A virus infection induced apoptosis in MDCK cells infected with influenza virus assessed as upregulation of Bcl2 incubated for 36 hrs by Western blot analysis; format: functional, organism-based
Influenza A virus [34] = experiment: Anti-influenza activity against influenza A virus H1NI (A/Weiss/43) infected in dog MDCK cells assessed as virus inhibition rate incubated for 72 hrs by MTT assay; format: functional, organism-based
Influenza A virus [35] = experiment: Inhibition of influenza A virus infection induced apoptosis in MDCK cells infected with influenza virus assessed as late apoptotic cells at 100 uM incubated for 36 hrs by AnnexinV-FITC/PI staining based flow cytometry (reference value: 13.2%); format: functional; parameters: scale not given: the % may be the effect or the level left
Influenza A virus [36] = experiment: In vivo antiviral activity against influenza A virus infected in BALB/c mouse assessed as reduction in IFN-gamma mRNA level in lung at 25 to 100 mg/kg measured after 6 dpi; format: functional, organism-based; conditions: dose 25-100 mg/kg

COc1ccc2c(c1)c(-c1ccccc1)c(NS(C)(=O)=O)n2S(=O)(=O)c1ccc(C)cc1
Activity (Influenza A virus [1]): 4.07%
Activity (Influenza A virus [2]): Active; Alleviate Following Symptoms - Symptoms Of Severe Malaise, Respiratory Distress, Asthma, Messy Coat, Hunched Back, And Loss Of Appetite To Certain Extent
Activity (Influenza A virus [3]): Active
Activity (Influenza A virus [4]): Active
Activity (Influenza A virus [5]): 1.74%
inhibition (MDCK): Active
Activity (Influenza A virus [6]): Active
Activity (Influenza A virus [7]): 3.6%
Activity (Influenza A virus [8]): Dose-dependent-effect
Activity (Influenza A virus [9]): Active
Activity [10]: Non-toxic
Activity (Influenza A virus [11]): 0.89%
Activity (Influenza A virus [12]): Active
Activity (Influenza A virus [13]): Active
Activity [14]: Non-toxic
Activity (Influenza A virus [15]): Active
Activity [16]: Non-toxic
Activity [17]: Non-toxic
CC50 at 72 h [18]: 632 µM
Activity (Influenza A virus [19]): Active
Activity (Influenza A virus [20]): Active
Activity (Influenza A virus [21]): 1.78%
Activity (Influenza A virus [22]): inactive
CC50 at 72 h [23]: 669 µM
Activity [24]: Non-toxic
Activity (Influenza A virus [25]): Dose-dependent-effect
Activity (Influenza A virus [26]): Active
Activity (Influenza A virus [27]): 96.7%
Activity (Influenza A virus [28]): Active
Activity (Influenza A virus [29]): Active
inhibition (Influenza A virus [30]): inactive
Activity (Influenza A virus [31]): 17.6%
Activity (Influenza A virus [32]): Active
Activity (Influenza A virus [33]): Active
EC50 (Influenza A virus [34]): 8.37 µM
Activity (Influenza A virus [35]): 1.62%
Activity (Influenza A virus [36]): Active
